Laboratory results as given in US20240182495A1, “ANTIBACTERIAL COMPOUNDS” (JANSSEN SCIENCES IRELAND UNLIMITED COMPANY, priority 2021, published 2024).
In brackets after ≈: the same amount, converted by molar mass. Read-outs that look alike come from different tables or passages of the source.

Columns and labels:
[1] = tested on: Mycobacterium tuberculosis strain (EH4.0, GFP-expressing; Test 2: H37Rv); assay: MIC determination against M. tuberculosis, Test 1 (and/or Test 2); type: cell-based; settings: 7 days incubation, fluorescence; for IC50: Mycobacterium tuberculosis, H37RV, 168 h
[2] = Chemical stability testing in DMSO, ACN/H2O, ACN/0.1N HCl, ACN/0.1N NaOH (% by LCMS); type: physicochemical
Description: Preliminary Protocol • Add 3 μl of a 10 mM DMSO stock solution to 1 ml of the following solvents in a 1.5 ml HPLC vial. • DMSO (reference solution) • H2O/Acetonitril 1/1 (assay solution) • 0.1N HCl/Acetonitril 1/1 (assay solution) • Mix well, […] LCMS • Compare the chromatograms of the two assay solutions with the reference solution and report the additional peaks as degradation peaks

[3] = Mitochondrial toxicity (Glu/Gal) assay; type: cell-based; settings: for Glu/Gal: Gal: galactose medium; for Glu/Gal: Glu: glucose medium; for all read-outs here: unit not given here
Excerpt: (§1) The compounds of the invention/examples may have advantages associated with in vitro potency, kill kinetics (i.e. bactericidal effect) in vitro, PK properties, food effect, safety/toxicity (including liver toxicity, coagulation, 5-LO oxygenase), metabolic stability, Ames II negativity, MINT negativity, aqueous based solubility (and ability to formulate) and/or cardiovascular effect e.g. on animals (e.g. anesthetized guinea pig). Data that is generated/calculated may be obtained using standard methods/assays, for instance that are available in the literature or which may be performed by a supplier (e.g. Microsomal Stability Assay—Cyprotex, Mitochondrial toxicity (Glu/Gal) assay—Cyprotex, as well as literature CYP cocktail inhibition assays). GSH can be measured (reactive metabolites, […]) to observe if a dihydrodiol is observed by LCMS (fragmentation ions), which would correspond to a dihydroxylation on the core heterocycle.

[4] = LM Clint (microsomal stability), human; type: in vitro ADME
Excerpt: as §1

physchem [5] = assay: physchem
[6] = tested on: CYPs (all isoforms, or the isoforms not named for that compound); assay: CYP cocktail inhibition, all / other isoforms; type: in vitro ADME; settings: read-out: CYPS IC50 (all / others)
Excerpt: as §1

physchem [7] = type: physicochemical; settings: for purity: 0.065 mg/mL in SGF with 20% ACN
physchem [8] = type: physicochemical
Excerpt: as §1

in vitro [9] = settings: mouse, plasma
[10] = MDCK permeability / efflux; settings: dog, MDCK; for MDCK AB+inh: unit not given here
MDCK = MDCK permeability / efflux; settings: A to B with inhibitor; for MDCK AB+inh: unit not given here
hERG = hERG (Homo sapiens, UniProt Q12809); assay: sync hERG; type: cell-based
in vitro [11] = settings: human, plasma
AMES II = settings: score
Excerpt: as §1

[12] = Hep t1/2 (hepatocyte stability), mouse; settings: hepatocytes
[13] = LM Clint (microsomal stability), mouse; type: in vitro ADME
Excerpt: as §1

2C8 = molecular target: T1, 2C8 (Homo sapiens, UniProt P10632); assay: CYP cocktail inhibition, 2C8; type: in vitro ADME; settings: read-out: CYPS IC50 2C8
T1 sequence (P10632 1-490): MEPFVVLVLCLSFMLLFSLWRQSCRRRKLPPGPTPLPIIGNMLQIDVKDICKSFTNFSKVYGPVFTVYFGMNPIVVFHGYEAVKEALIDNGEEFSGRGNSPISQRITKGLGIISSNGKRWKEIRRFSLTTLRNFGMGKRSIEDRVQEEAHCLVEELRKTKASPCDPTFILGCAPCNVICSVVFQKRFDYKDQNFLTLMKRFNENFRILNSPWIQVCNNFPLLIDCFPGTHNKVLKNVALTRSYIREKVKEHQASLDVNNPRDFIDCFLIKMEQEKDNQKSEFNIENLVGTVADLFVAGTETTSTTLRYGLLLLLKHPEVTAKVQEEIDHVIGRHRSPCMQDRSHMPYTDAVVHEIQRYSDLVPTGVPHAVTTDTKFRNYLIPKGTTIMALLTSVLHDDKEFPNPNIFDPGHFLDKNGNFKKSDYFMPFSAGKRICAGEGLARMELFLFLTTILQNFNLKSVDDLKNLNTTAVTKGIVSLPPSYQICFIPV
Excerpt: as §1

2C19 = 2C19 (Homo sapiens, UniProt P33261); assay: CYP cocktail inhibition, 2C19; type: in vitro ADME; settings: read-out: CYPS IC50 2C19
Excerpt: as §1

2C9 = 2C9 (Homo sapiens, UniProt P11712); assay: CYP cocktail inhibition, 2C9; type: in vitro ADME; settings: read-out: CYPS IC50 2C9
Excerpt: as §1

in vitro [14] = settings: mouse, hepatocytes
[15] = h (human) liver microsomes, read-out: LM Clint
[16] = pH 2, simulated gastric fluid, thermodynamic from solid
[17] = pH 7, aqueous buffer, thermodynamic from solid

hERG, sequence (Q12809 whole entry): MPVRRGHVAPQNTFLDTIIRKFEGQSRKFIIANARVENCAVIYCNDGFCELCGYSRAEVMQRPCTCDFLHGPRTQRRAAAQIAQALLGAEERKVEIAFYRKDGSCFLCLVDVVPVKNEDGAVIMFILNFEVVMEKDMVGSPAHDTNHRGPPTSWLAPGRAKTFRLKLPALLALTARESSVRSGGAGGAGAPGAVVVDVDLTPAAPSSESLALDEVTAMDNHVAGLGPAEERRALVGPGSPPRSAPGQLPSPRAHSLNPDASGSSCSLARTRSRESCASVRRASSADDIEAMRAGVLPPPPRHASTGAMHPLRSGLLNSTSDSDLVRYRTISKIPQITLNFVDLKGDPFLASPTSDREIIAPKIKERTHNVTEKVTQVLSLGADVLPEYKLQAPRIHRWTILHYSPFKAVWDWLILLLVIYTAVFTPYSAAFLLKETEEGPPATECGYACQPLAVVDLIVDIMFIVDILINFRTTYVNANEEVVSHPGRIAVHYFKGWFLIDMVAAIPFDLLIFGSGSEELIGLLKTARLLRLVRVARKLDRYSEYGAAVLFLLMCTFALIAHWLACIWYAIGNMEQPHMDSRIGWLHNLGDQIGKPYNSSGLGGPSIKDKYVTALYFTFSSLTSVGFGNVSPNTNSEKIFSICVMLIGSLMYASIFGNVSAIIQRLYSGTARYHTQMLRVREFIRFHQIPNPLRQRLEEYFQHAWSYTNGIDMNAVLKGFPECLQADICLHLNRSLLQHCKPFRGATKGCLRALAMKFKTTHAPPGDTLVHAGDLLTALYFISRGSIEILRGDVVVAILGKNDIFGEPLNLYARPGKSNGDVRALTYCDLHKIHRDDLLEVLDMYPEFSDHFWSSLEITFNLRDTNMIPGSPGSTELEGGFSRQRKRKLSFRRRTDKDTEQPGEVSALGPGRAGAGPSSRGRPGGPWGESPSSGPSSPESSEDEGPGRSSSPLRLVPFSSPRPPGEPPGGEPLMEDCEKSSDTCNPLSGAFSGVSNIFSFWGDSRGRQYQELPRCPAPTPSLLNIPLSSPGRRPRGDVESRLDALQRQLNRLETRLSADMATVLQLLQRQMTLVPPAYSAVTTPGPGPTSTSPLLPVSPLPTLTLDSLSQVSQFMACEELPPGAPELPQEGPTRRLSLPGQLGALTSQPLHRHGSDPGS
2C9, sequence (P11712 whole entry): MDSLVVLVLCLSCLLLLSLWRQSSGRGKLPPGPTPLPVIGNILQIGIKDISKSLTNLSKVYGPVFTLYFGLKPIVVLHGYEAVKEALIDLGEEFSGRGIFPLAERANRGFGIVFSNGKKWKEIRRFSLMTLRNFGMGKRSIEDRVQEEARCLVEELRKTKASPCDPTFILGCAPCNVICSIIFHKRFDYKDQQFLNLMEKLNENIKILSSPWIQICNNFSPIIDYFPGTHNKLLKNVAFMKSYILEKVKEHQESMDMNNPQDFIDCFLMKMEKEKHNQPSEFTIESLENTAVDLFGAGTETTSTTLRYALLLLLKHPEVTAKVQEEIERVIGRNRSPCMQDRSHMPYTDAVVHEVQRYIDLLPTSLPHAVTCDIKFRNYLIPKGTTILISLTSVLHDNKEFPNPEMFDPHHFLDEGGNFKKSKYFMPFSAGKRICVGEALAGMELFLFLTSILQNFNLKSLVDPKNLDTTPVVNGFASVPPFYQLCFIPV
2C19, sequence (P33261 whole entry): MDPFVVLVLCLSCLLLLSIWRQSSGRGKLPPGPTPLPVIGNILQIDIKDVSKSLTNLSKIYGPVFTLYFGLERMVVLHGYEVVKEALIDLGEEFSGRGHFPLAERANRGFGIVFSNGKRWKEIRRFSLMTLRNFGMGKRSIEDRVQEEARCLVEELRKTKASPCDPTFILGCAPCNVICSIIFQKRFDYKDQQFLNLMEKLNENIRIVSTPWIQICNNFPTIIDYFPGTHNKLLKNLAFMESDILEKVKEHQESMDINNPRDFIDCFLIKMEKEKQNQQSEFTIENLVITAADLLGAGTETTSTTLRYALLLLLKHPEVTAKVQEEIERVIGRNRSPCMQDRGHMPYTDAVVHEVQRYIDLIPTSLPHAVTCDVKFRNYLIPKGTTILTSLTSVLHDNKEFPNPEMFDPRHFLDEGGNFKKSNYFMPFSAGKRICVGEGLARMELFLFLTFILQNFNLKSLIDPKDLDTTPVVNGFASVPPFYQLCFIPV

Row | Structure (SMILES) | IC50 [1] [µM] | chemical stability (% by LCMS) ([2]; 72 h, 30 µM) [%] | chemical stability (% by LCMS) ([2]; 72 h, 30 µM, pH 1.6) [%] | chemical stability (% by LCMS) ([2]; 48 h, 30 μM) [%] | chemical stability (% by LCMS) ([2]; 48 h, 30 μM, pH 1.6) [%] | Glu/Gal: Gal [3] | Glu/Gal: Glu [3] | microsomal CLint [4, 15] [µL/min/mg] | solubility (physchem [5]; fassif) [µM] | solubility (physchem [5]; fessif) [µM] | solubility thermodynamic (physchem [8]; [16]) [µM] | MDCK AB+inh (MDCK) | IC50 (hERG) [µM] | AMES II (AMES II) | further results
1 | CCc1nc2nc(N)c(Cl)cn2c1C(=O)NCc1ccc(-c2nc3n(n2)CCN(S(=O)(=O)C(F)(F)F)C3)c(F)c1 [Compound 12] | 0.0933 | 96.14 | 97.06 |  |  |  |  |  |  |  |  |  |  |  | 
2 | CCc1nc2ncc(C)cn2c1C(=O)NCc1ccc(-c2cc3n(n2)CCN(S(=O)(=O)C(F)(F)F)C3)cc1 [Compound 44] | 0.00219 |  |  | 100 | 100 |  |  |  |  |  |  |  |  |  | 
3 | CCc1nc2ccc(C)cn2c1C(=O)NCc1ccc(-c2cc3n(n2)CCN(S(=O)(=O)C(F)(F)F)C3)cc1 [Compound 81] | 0.0204 |  |  | 100 | 100 |  |  |  |  |  |  |  |  |  | chemical stability (% by LCMS) ([2]; 0 h, 30 μM): 95%
4 | CCc1nc2ncc(Cl)cn2c1C(=O)NCc1ccc(-c2nc3n(n2)CCN(S(=O)(=O)C(F)(F)F)C3)cc1 [Compound 2] | 0.01 | 100 | 90.52 |  |  | > 100 | > 100 | 9.3 | < 5 | 24.4 (≈ 13.9 µg/mL) | 0.99 (≈ 0.563 µg/mL) | 32.5 | > 30 | 1 | IC50 [6]: > 20 µM; purity (physchem [7]; at 0 hr): 99.56%; purity (physchem [7]; at 0.25 hr): 99.38%; purity (physchem [7]; at 0.5 hr): 99.21%; purity (physchem [7]; at 1 hr): 98.89%; purity (physchem [7]; at 2 hr): 98.28%; purity (physchem [7]; at 4 hr): 97.1%; half-life at 0.065 mg/mL (physchem [7]; simulated gi fluid): 113 h; solubility thermodynamic (physchem [8]; [17]): < 0.13 µM; fraction unbound (in vitro [9]): 0.0054; efflux ratio [10]: 12.6; fraction unbound (in vitro [11]): 0.0117
5 | CCc1nc2ncc(C)cn2c1C(=O)NCc1ccc(-c2cc3n(n2)CCN(S(=O)(=O)C(F)(F)F)C3)c(F)c1 [Compound 82] | 0.00282 |  |  | 100 | 100 | > 25 | > 25 | 231 | 24.5 (≈ 13.9 µg/mL) | 8.8 (≈ 4.98 µg/mL) | 12.3 (≈ 6.96 µg/mL) | 16.2 | 20.4 | 1 | half-life [12]: 16.5 min; IC50 [6]: > 19.5 µM; microsomal CLint ([13]; m (mouse) liver microsomes, read-out: LM Clint): 28 µL/min/mg; solubility thermodynamic (physchem [8]; pH 4, aqueous buffer): < 0.02 µM; IC50 (2C8): 10.6 µM
6 | CCc1nc2ccc(C)cn2c1C(=O)NCc1ccc(-c2cn3c(n2)CN(S(=O)(=O)C(F)(F)F)CC3)cc1 [Compound 79] | 0.00676 |  |  | 100 | 100 | > 200 | > 200 |  | 5.6 (≈ 3.06 µg/mL) | 29.3 (≈ 16 µg/mL) | 574 (≈ 314 µg/mL) | 42.7 | 30.2 | 1 | IC50 (2C19): 14.4 µM; microsomal CLint ([4]; human, microsomes): 39.8 µL/min/mg; IC50 ([6]; human): > 20 µM; microsomal CLint ([13]; mouse, microsomes): 13.2 µL/min/mg; IC50 (2C9): 17.7 µM; solubility thermodynamic (physchem [8]; pH 4, aqueous buffer): 0.062 µM (≈ 0.0339 µg/mL); half-life (in vitro [14]): 43.3 min; chemical stability (% by LCMS) ([2]; 0 h, 30 μM): 100%
7 | CCc1nc2ncc(C)cn2c1C(=O)NCc1ccc(-c2nc3n(n2)CCN(S(=O)(=O)C(F)(F)F)C3)c(F)c1 [Compound 7] | 0.00851 | 100 | 100 |  |  | > 200 | > 200 | 22.6 |  |  | 125 (≈ 70.8 µg/mL) | 21.4 | > 30 |  | IC50 ([6]; human): > 20 µM; IC50 (2C9): 15.5 µM; solubility thermodynamic (physchem [8]; [17]): 1.62 µM (≈ 0.918 µg/mL); efflux ratio [10]: 61.7
8 | CCc1nc2ncc(C)cn2c1C(=O)NCCc1ccc(-c2nc3n(n2)CCN(S(=O)(=O)C(F)(F)F)C3)cc1 [Compound 66] |  |  |  |  |  |  |  |  |  |  |  |  |  |  | pIC50 [1]: 6.57; chemical stability (% by LCMS) ([2]; ACN/0.1N HCl (pH 1.6; 48 hr, rt)): 98%; chemical stability (% by LCMS) ([2]; ACN/H2O (48 hr, rt)): 98%; chemical stability (% by LCMS) ([2]; DMSO (0 hr, rt)): 91%
